PubChem BioAssay AID192 (DTP/NCI, 2004)
Several values for one entry are separate records, joined by “and”; a condition that tells them apart may be missing. Identical values can stand only once. Inconclusive results and toxic doses are left out.

System: BDF1 mice, B16 melanoma ip, median survival T/C
Test: NCI In Vivo Anticancer Drug Screen. Data for tumor model B16 Melanoma (intraperitoneal) in B6D2F1 (BDF1) mice
Conditions: endpoint: median survival time, higher = longer survival
Method in brief: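 In this screen, activity was judged from survival or tumor size in treated versus vehicle-treated tumor-bearing mice, reported as T/C.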

[1] = dose: 6.25 mg/kg/injection, schedule: Q01DX009 (ip), vehicle: saline with Tween-80
[2] = dose: 12.5 mg/kg/injection, schedule: Q01DX009 (ip), vehicle: saline with Tween-80
[3] = dose: 25.0 mg/kg/injection, schedule: Q01DX009 (ip), vehicle: saline with Tween-80
[4] = dose: 3.12 mg/kg/injection, schedule: Q01DX009 (ip), vehicle: saline
[5] = dose: 6.25 mg/kg/injection, schedule: Q01DX009 (ip), vehicle: saline
[6] = dose: 12.5 mg/kg/injection, schedule: Q01DX009 (ip), vehicle: saline
[7] = dose: 25.0 mg/kg/injection, schedule: Q01DX009 (ip), vehicle: saline
[8] = dose: 50.0 mg/kg/injection, schedule: Q01DX009 (ip), vehicle: saline with Tween-80
[9] = dose: 100.0 mg/kg/injection, schedule: Q01DX009 (ip), vehicle: saline with Tween-80
[10] = dose: 50.0 mg/kg/injection, schedule: Q01DX009 (ip), vehicle: Klucel (hydroxypropylcellulose) (HPC)
[11] = dose: 100.0 mg/kg/injection, schedule: Q01DX009 (ip), vehicle: Klucel (hydroxypropylcellulose) (HPC)
[12] = dose: 200.0 mg/kg/injection, schedule: Q01DX009 (ip), vehicle: Klucel (hydroxypropylcellulose) (HPC)
[13] = dose: 200.0 mg/kg/injection, schedule: Q01DX009 (ip), vehicle: saline with Tween-80
[14] = dose: 100.0 mg/kg/injection, schedule: Q04DX003 (ip), vehicle: Klucel (hydroxypropylcellulose) (HPC)
[15] = dose: 200.0 mg/kg/injection, schedule: Q04DX003 (ip), vehicle: Klucel (hydroxypropylcellulose) (HPC)
[16] = dose: 400.0 mg/kg/injection, schedule: Q01DX009 (ip), vehicle: Klucel (hydroxypropylcellulose) (HPC)
[17] = dose: 400.0 mg/kg/injection, schedule: Q04DX003 (ip), vehicle: Klucel (hydroxypropylcellulose) (HPC)

## Cc1ccc(C(=O)NC2C(=O)NC(C(C)C)C(=O)N3CCCC3C(=O)N(C)CC(=O)N(C)C(C(C)C)C(=O)OC2C)c2c1Oc1c(c(C(=O)NC3C(=O)NC(C(C)C)C(=O)N4CCCC4C(=O)N(C)CC(=O)N(C)C(C(C)C)C(=O)OC3C)c3nc(-c4ccccc4)c(=O)oc3c1C)N2 (stereo not drawn)
dose: 0.13 mg/kg/injection, schedule: Q04DX003 (ip), vehicle: saline + alcohol
  T/C: 124 % of control
dose: 0.13 mg/kg/injection, schedule: Q04DX003 (ip), vehicle: water
  T/C: 155 % of control
dose: 0.25 mg/kg/injection, schedule: Q04DX003 (ip), vehicle: saline + alcohol
  T/C: 152 % of control
dose: 0.5 mg/kg/injection, schedule: Q04DX003 (ip), vehicle: saline + alcohol
  T/C: 156 % of control
dose: 0.5 mg/kg/injection, schedule: Q04DX003 (ip), vehicle: water
  T/C: 163 % of control
dose: 1.0 mg/kg/injection, schedule: Q04DX003 (ip), vehicle: saline + alcohol
  T/C: 191 % of control
dose: 1.0 mg/kg/injection, schedule: Q04DX003 (ip), vehicle: water
  T/C: 173 % of control

## NC(=S)Nc1cccc2ccccc12
[1]
  T/C: 99 % of control
[2]
  T/C: 95 % of control
[3]
  T/C: 97 % of control

## CN(C)CCCC1(C#N)c2ccccc2CCc2ccccc21
[4]
  T/C: 110 % of control
[5]
  T/C: 97 % of control
[6]
  T/C: 100 % of control
[7]
  T/C: 110 % of control

## CC(=O)Nc1ccc2c(ccc3ccccc32)c1
[3]
  T/C: 90 % of control
[8]
  T/C: 102 % of control
[9]
  T/C: 89 % of control

## COc1ccc(-c2c(N)nc(=S)[nH]c2C(=O)O)cc1
[10]
  T/C: 94 % of control
[11]
  T/C: 105 % of control
[12]
  T/C: 94 % of control

## CCCCCCCC(N)=O
[9]
  T/C: 100 % of control
[13]
  T/C: 106 % of control

## O=C(OCCOCCN1CCCCC1)N1c2ccccc2Sc2cccnc21
[4]
  T/C: 100 % of control
[6]
  T/C: 100 % of control
[7]
  T/C: 102 % of control

## CCCCC(CC)C(O)C(C)C(C)O (stereo not drawn)
[11]
  T/C: 97 % of control
[12]
  T/C: 87 % of control

## COc1cc(OC)cc(C(O)C(C)NC(C)C)c1 (stereo not drawn)
[5]
  T/C: 112 % of control
dose: 50.0 mg/kg/injection, schedule: Q01DX009 (ip), vehicle: saline
  T/C: 87 % of control
dose: 100.0 mg/kg/injection, schedule: Q01DX009 (ip), vehicle: saline
  T/C: 112 % of control

## O=S(=O)(O)C1CCC[N-]C1.O=S(=O)(O)C1CCC[N-]C1.[Cl][Pt+2]([Cl])([Cl])[Cl] (stereo not drawn)
[1]
  T/C: 110 % of control
[2]
  T/C: 95 % of control
[3]
  T/C: 103 % of control
[8]
  T/C: 106 % of control
[9]
  T/C: 105 % of control

## N#CCCCN1CCCCC1
[5]
  T/C: 100 % of control
[6]
  T/C: 100 % of control
[7]
  T/C: 111 % of control

## CN1CCCCC1CCN1c2ccccc2Sc2ccc(Cl)cc21 (stereo not drawn)
dose: 1.56 mg/kg/injection, schedule: Q01DX009 (ip), vehicle: saline
  T/C: 109 % of control
[4]
  T/C: 102 % of control
[5]
  T/C: 100 % of control
[6]
  T/C: 103 % of control
[7]
  T/C: 94 % of control

## CCOC(=O)NC(CC)CO (stereo not drawn)
[11]
  T/C: 100 % of control
[14]
  T/C: 90 % of control
[12]
  T/C: 97 % of control
[15]
  T/C: 100 % of control
[16]
  T/C: 102 % of control
[17]
  T/C: 95 % of control

## COC(=O)C(Cc1c[nH]c2ccccc12)NC(=O)C(NC(=O)OC(C)(C)C)C(C)C (stereo not drawn)
[10]
  T/C: 91 % of control

## Cc1c(Cl)cccc1NC(=O)c1ccc(Cl)cc1
dose: 75.0 mg/kg/injection, schedule: Q01DX009 (ip), vehicle: Klucel (hydroxypropylcellulose) (HPC)
  T/C: 94 % of control
dose: 150.0 mg/kg/injection, schedule: Q01DX009 (ip), vehicle: Klucel (hydroxypropylcellulose) (HPC)
  T/C: 90 % of control

## O=C(O)C1OC1c1ccccc1 (stereo not drawn)
[9]
  T/C: 97 % of control
[13]
  T/C: 102 % of control
dose: 400.0 mg/kg/injection, schedule: Q01DX009 (ip), vehicle: saline with Tween-80
  T/C: 100 % of control

## COc1cccc2c1C(=O)c1c(O)c3c(c(O)c1C2=O)C[C@@](O)(/C(C)=N/NC(=O)c1ccc(Cl)cc1)C[C@@H]3OC1CC(N)C(O)C(C)O1 (stereo partly drawn)
dose: 1.0 mg/kg/injection, schedule: Q01DX009 (ip), vehicle: suspension in saline
  T/C: 155 % of control
dose: 2.0 mg/kg/injection, schedule: Q01DX009 (ip), vehicle: suspension in saline
  T/C: 188 % of control
dose: 2.5 mg/kg/injection, schedule: Q01DX001 (ip), vehicle: saline with Tween-80
  T/C: 155 % of control
dose: 2.5 mg/kg/injection, schedule: Q01DX001 (ip), vehicle: water
  T/C: 121 % of control
dose: 4.0 mg/kg/injection, schedule: Q01DX009 (ip), vehicle: suspension in saline
  T/C: 193 % of control
dose: 5.0 mg/kg/injection, schedule: Q01DX001 (ip), vehicle: saline with Tween-80
  T/C: 204 % of control
dose: 5.0 mg/kg/injection, schedule: Q01DX001 (ip), vehicle: water
  T/C: 279 % of control
dose: 8.0 mg/kg/injection, schedule: Q01DX009 (ip), vehicle: suspension in saline
  T/C: 322 % of control
dose: 10.0 mg/kg/injection, schedule: Q01DX001 (ip), vehicle: saline with Tween-80
  T/C: 196 % of control
dose: 10.0 mg/kg/injection, schedule: Q01DX001 (ip), vehicle: water
  T/C: 154 % of control and 300 % of control
dose: 20.0 mg/kg/injection, schedule: Q01DX001 (ip), vehicle: saline with Tween-80
  T/C: 280 % of control
dose: 20.0 mg/kg/injection, schedule: Q01DX001 (ip), vehicle: water
  T/C: 235 % of control
dose: 40.0 mg/kg/injection, schedule: Q01DX001 (ip), vehicle: saline with Tween-80
  T/C: 205 % of control

## NC(N)=Nc1nc2ccccc2s1
dose: 25.0 mg/kg/injection, schedule: Q04DX003 (ip), vehicle: Klucel (hydroxypropylcellulose) (HPC)
  T/C: 105 % of control
dose: 50.0 mg/kg/injection, schedule: Q04DX003 (ip), vehicle: Klucel (hydroxypropylcellulose) (HPC)
  T/C: 97 % of control
[14]
  T/C: 97 % of control

## O=C(COc1ccc(Cl)cc1)NCCc1ccccc1
[11]
  T/C: 93 % of control
[12]
  T/C: 103 % of control
[16]
  T/C: 90 % of control

## CCNC(=O)Nc1ccc(C)cc1C
[14]
  T/C: 106 % of control
[15]
  T/C: 96 % of control
[17]
  T/C: 106 % of control

## CC(C)c1cccc(C(C)C)c1OC(=O)Nc1ccccc1Cl
[14]
  T/C: 100 % of control
[15]
  T/C: 96 % of control

## CC(C)(CN=Cc1ccccc1[O-])N=Cc1ccccc1[O-].[O]=[V]
[1]
  T/C: 95 % of control
dose: 6.25 mg/kg/injection, schedule: Q04DX003 (ip), vehicle: saline with Tween-80
  T/C: 113 % of control
[2]
  T/C: 95 % of control
dose: 12.5 mg/kg/injection, schedule: Q04DX003 (ip), vehicle: saline with Tween-80
  T/C: 91 % of control
[3]
  T/C: 92 % of control
dose: 25.0 mg/kg/injection, schedule: Q04DX003 (ip), vehicle: saline with Tween-80
  T/C: 104 % of control

## O=S(=O)(O)c1ccc2c(O)cc(S(=O)(=O)O)cc2c1
dose: 100.0 mg/kg/injection, schedule: Q04DX003 (ip), vehicle: saline
  T/C: 100 % of control
dose: 200.0 mg/kg/injection, schedule: Q04DX003 (ip), vehicle: saline
  T/C: 105 % of control
dose: 400.0 mg/kg/injection, schedule: Q04DX003 (ip), vehicle: saline
  T/C: 108 % of control

## C(=Nc1ccc2c(c1)Cc1ccccc1-2)c1ccnc2ccccc12
[11]
  T/C: 103 % of control
[12]
  T/C: 100 % of control
[16]
  T/C: 93 % of control

## CS(=O)(=O)OCC1CCCCO1 (stereo not drawn)
[14]
  T/C: 92 % of control and 100 % of control
[15]
  T/C: 100 % of control
[17]
  T/C: 104 % of control and 108 % of control

## C#C[C@]1(O)CC[C@H]2[C@@H]3CCc4cc(O)ccc4[C@H]3CC[C@@]21C
dose: 5.0 mg/kg/injection, schedule: Q02DX009 (ip), vehicle: Klucel (hydroxypropylcellulose) (HPC)
  T/C: 86 % of control
dose: 10.0 mg/kg/injection, schedule: Q02DX009 (ip), vehicle: Klucel (hydroxypropylcellulose) (HPC)
  T/C: 97 % of control
dose: 20.0 mg/kg/injection, schedule: Q02DX009 (ip), vehicle: Klucel (hydroxypropylcellulose) (HPC)
  T/C: 87 % of control
dose: 40.0 mg/kg/injection, schedule: Q02DX009 (ip), vehicle: Klucel (hydroxypropylcellulose) (HPC)
  T/C: 86 % of control and 96 % of control
dose: 80.0 mg/kg/injection, schedule: Q02DX009 (ip), vehicle: Klucel (hydroxypropylcellulose) (HPC)
  T/C: 86 % of control

## O=S1(=O)CC(Cl)(Br)C1 (tested in a mixture with another compound)
dose: 12.5 mg/kg/injection, schedule: Q01DX009 (ip), vehicle: Klucel (hydroxypropylcellulose) (HPC)
  T/C: 105 % of control
dose: 25.0 mg/kg/injection, schedule: Q01DX009 (ip), vehicle: Klucel (hydroxypropylcellulose) (HPC)
  T/C: 108 % of control
[10]
  T/C: 108 % of control
[11]
  T/C: 93 % of control and 108 % of control
